Structures are written as SMILES.

The target of the test is 5-hydroxytryptamine receptor 5B (Mus musculus, UniProt P31387).
5-hydroxytryptamine receptor 5B, sequence (P31387 whole entry): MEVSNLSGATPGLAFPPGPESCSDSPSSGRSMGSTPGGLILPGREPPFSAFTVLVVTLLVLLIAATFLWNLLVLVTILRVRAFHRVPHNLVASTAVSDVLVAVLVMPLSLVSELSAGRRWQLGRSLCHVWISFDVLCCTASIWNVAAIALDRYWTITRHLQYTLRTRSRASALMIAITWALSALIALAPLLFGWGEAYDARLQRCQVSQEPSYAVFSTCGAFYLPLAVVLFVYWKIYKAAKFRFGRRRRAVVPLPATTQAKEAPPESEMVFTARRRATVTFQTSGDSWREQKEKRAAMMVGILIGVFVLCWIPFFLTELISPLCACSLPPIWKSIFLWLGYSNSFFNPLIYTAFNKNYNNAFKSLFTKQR
Usually Ki stands for the equilibrium dissociation constant of an inhibitor or competing ligand from its target. A low value points to higher affinity. As to `NCCc1c[nH]c2ccc(O)cc12` [[3H]-5-HT], the Ki is 251 nM.

`FC(F)(F)c1cccc(N2CCNCC2)c1` [TFMPP] had a Ki of 3980 nM.

Compound `CC[C@@H](CO)NC(=O)[C@@H]1C=C2c3cccc4c3c(cn4C)C[C@H]2N(C)C1` had a Ki of 126 nM.

In turn, `CSc1ccc2c(c1)C(N1CCN(C)CC1)Cc1ccccc1S2` (stereo not drawn) [methanesulfonic acid;1-methyl-4-(3-methylsulfanyl-5,6-dihydrobenzo[b][1]benzothiepin-5-yl)piperazine] registered a Ki of 15.8 nM.

For `NCCc1ccc(O)c(O)c1`, the inhibitory constant (Ki) is over 10000 nM.

The compound `O=C(c1ccc(F)cc1)C1CCN(CCn2c(=O)[nH]c3ccccc3c2=O)CC1` [3-(2-{4-[(4-fluorophenyl)carbonyl]piperidin-1-yl}ethyl)-1,2,3,4-tetrahydroquinazoline-2,4-dione] came in with a Ki of 1580 nM.

`CN1C[C@H](C(=O)N[C@]2(C)O[C@@]3(O)[C@@H]4CCCN4C(=O)[C@H](Cc4ccccc4)N3C2=O)C=C2c3cccc4[nH]cc(c34)C[C@H]21` [12'-hydroxy-2'-methyl-5'alpha-(phenylmethyl)ergotaman-3',6',18-trione] returned a Ki of 3.16 nM.

On to `NCC(O)c1ccc(O)c(O)c1` (stereo not drawn) [Noradrenaline,(+)], for which the Ki is over 10000 nM.

`CCCN(CCC)C1CCc2cccc(O)c2C1` (stereo not drawn): the Ki amounted to 398 nM.

On to `NCCc1c[nH]c2ccc(C(N)=O)cc12` [[3H]-5-carboxamidotryptamine], for which the inhibition constant (Ki) amounted to 39.8 nM.

`COc1ccc2[nH]cc(C3=CCNCC3)c2c1` [5-Methoxy-3-(1,2,3,6-tetrahydro-pyridin-4-yl)-1H-indole(RU-24969)] yielded an inhibition constant (Ki) of 398 nM.

Take `CN(C)CCc1c[nH]c2ccc(O)cc12` [3-[2-(dimethylamino)ethyl]indol-5-ol]: the Ki was 1580 nM.

Take `CNS(=O)(=O)Cc1ccc2[nH]cc(CCN(C)C)c2c1` [Sumax]: the affinity corresponds to a Ki of 7940 nM.

The values above are taken from BindingDB's records for PubMed 8450829 (Cnrs, 1993).
